Test results as given in patent US20260027068A1, “METHODS OF ADM[…]-KETAMINE” (Perception Neuroscience, Inc., priority 2022, published 2026).

Tested on: subjects with TRD
Experiment: Adverse events (TEAEs, SAEs) in the TRD study
Assay type: in vivo, human
Conditions: 30 mg (n = 33)
Excerpt: The definitions of an AE and SAE can be found in Section F. AEs were reported by the subject (or, when appropriate, by a caregiver, surrogate, or the subject's legally authorized representative). The Investigator and any designees were responsible for detecting, documenting, and recording events that meet the definition of an AE or SAE and remained responsible for following up AEs that were serious, considered related to the study treatment or study procedures, or that caused the subject to discontinue from the study.
All AEs were collected from the signing of the ICF until the second follow-up visit (Day 15) at the time points specified in the Schedule of Activities (Section C). Medical occurrences that began before the start of study treatment but after obtaining informed consent were recorded on the Medical History/Current Medical Conditions section of the CRF, not the AE section. All SAEs were recorded and reported to the Sponsor or designee within 24 hours as indicated in Section F. The Investigator submitted any updated SAE data to the Sponsor or designee within 24 hours of it being available. Investigators were not obligated to actively seek AE or SAE information after the conclusion of study participation. However, if the Investigator learns of any SAE, including a death, at any time after a subject has been discharged from the study, and he/she considers the event to be reasonably related to the study treatment or study participation, the Investigator must promptly notify the Sponsor or designee. The method of recording, evaluating, and assessing the causality of AEs and SAEs and the procedures for completing and transmitting SAE reports are provided in Section F.
An AE is any untoward medical occurrence in a patient or subject, temporally associated with the use of study treatment, whether or not considered related to the study treatment. An AE can therefore be any unfavorable and unintended sign (including an abnormal laboratory finding), symptom, or disease (new or exacerbated) temporally associated with the use of study treatment.
If an event is not an AE per the definition above, then it cannot be an SAE even if serious conditions are met (e.g., hospitalization for signs/symptoms of the disease under study). A Serious Adverse Event (SAE) is defined as any untoward medical occurrence that, at any dose: a) results in death; b) is life-threatening; c) requires inpatient hospitalization or prolongation of existing hospitalization; d) results in persistent disability/incapacity; or e) is a congenital anomaly/birth defect. The term “life-threatening” in the definition of “serious” refers to an event in which the subject was at risk of death at the time of the event. […] In general, hospitalization signifies that the subject has been detained (usually involving at least an overnight stay) at the hospital or emergency ward for observation and/or treatment that would not have been appropriate in the physician's office or outpatient setting. Complications that occur during hospitalization are AEs. If a complication prolongs hospitalization or fulfills any other serious criteria, the event is serious. When in doubt as to whether “hospitalization” occurred or was necessary, the AE should be considered serious. […] The term disability means a substantial disruption of a person's ability to conduct normal life functions.
(MedDRA; Version 23.0 or higher). Treatment-emergent adverse events (TEAEs) are AEs with onset or worsening after the start of study treatment. The AE summaries will be primarily based on TEAEs. The number and percentage of subjects with TEAEs will be summarized by treatment group, system organ class, and preferred term for all TEAEs, treatment-related TEAEs, SAEs, serious TEAEs, severe TEAEs, TEAEs of special interest, and all TEAEs leading to study drug discontinuation. All TEAEs will be further summarized by maximum severity and causality. The TEAEs of special interest will be identified in the SAP. […]

CN[C@@]1(c2ccccc2Cl)CCCCC1=O [PCN 101]
9: TEAE SOC Nervous system disorders: number of subjects
(0): TEAE PT Alopecia: (%) of subjects | TEAE PT Aversion: (%) of subjects | TEAE PT Balance disorder: (%) of subjects | TEAE PT Blood pressure increased: (%) of subjects | TEAE PT Bruxism: (%) of subjects | TEAE PT Confusional state: (%) of subjects | TEAE PT Defect conduction intraventricular: (%) of subjects | TEAE PT Diarrhoea: (%) of subjects | TEAE PT Dissociation: (%) of subjects | TEAE PT Dry mouth: (%) of subjects | TEAE PT Dysarthria: (%) of subjects | TEAE PT Energy increased: (%) of subjects | TEAE PT Euphoric mood: (%) of subjects | TEAE PT Fatigue: (%) of subjects | TEAE PT Feeling abnormal: (%) of subjects | TEAE PT Feeling drunk: (%) of subjects | TEAE PT Hyperacusis: (%) of subjects | TEAE PT Hyperphagia: (%) of subjects | TEAE PT Hypoaesthesia oral: (%) of subjects | TEAE PT Hypoaesthesia: (%) of subjects | TEAE PT Increased appetite: (%) of subjects | TEAE PT Influenza like illness: (%) of subjects | TEAE PT Infusion site hypoaesthesia: (%) of subjects | TEAE PT Left ventricular hypertrophy: (%) of subjects | TEAE PT Lethargy: (%) of subjects | TEAE PT Limb discomfort: (%) of subjects | TEAE PT Logorrhoea: (%) of subjects | TEAE PT Memory impairment: (%) of subjects | TEAE PT Muscular weakness: (%) of subjects | TEAE PT Nausea: (%) of subjects | TEAE PT Paraesthesia: (%) of subjects | TEAE PT Rhinorrhoea: (%) of subjects | TEAE PT Sedation: (%) of subjects | TEAE PT Sinusitis: (%) of subjects | TEAE PT Skin abrasion: (%) of subjects | TEAE PT Slow speech: (%) of subjects | TEAE PT Smoke sensitivity: (%) of subjects | TEAE PT Tachycardia: (%) of subjects | TEAE PT Throat tightness: (%) of subjects | TEAE PT Time perception altered: (%) of subjects | TEAE PT Venous injury: (%) of subjects | TEAE PT Vision blurred: (%) of subjects | TEAE PT Visual impairment: (%) of subjects | TEAE SOC Cardiac disorders: (%) of subjects | TEAE SOC Eye disorders: (%) of subjects | TEAE SOC Gastrointestinal disorders: (%) of subjects | TEAE SOC Immune system disorders: (%) of subjects | TEAE SOC Investigations: (%) of subjects | TEAE SOC Metabolism and nutrition disorders: (%) of subjects | TEAE SOC Musculoskeletal and connective tissue disorders: (%) of subjects
2: TEAE PT Dizziness: number of subjects
(9): TEAE PT Headache: (%) of subjects
(12): TEAE PT Derealisation: (%) of subjects | TEAE PT Somnolence: (%) of subjects | TEAE SOC Psychiatric disorders: (%) of subjects
22: Number of treatment-emergent adverse events
3: TEAE PT Headache: number of subjects
(6): TEAE PT Dizziness: (%) of subjects
11: Number of subjects with any treatment-emergent adverse events
(33): Subjects with any treatment-emergent adverse events: (%) of subjects
0: TEAE PT Alopecia: number of subjects | TEAE PT Aversion: number of subjects | TEAE PT Balance disorder: number of subjects | TEAE PT Blood pressure increased: number of subjects | TEAE PT Bruxism: number of subjects | TEAE PT Confusional state: number of subjects | TEAE PT Defect conduction intraventricular: number of subjects | TEAE PT Diarrhoea: number of subjects | TEAE PT Dissociation: number of subjects | TEAE PT Dry mouth: number of subjects | TEAE PT Dysarthria: number of subjects | TEAE PT Energy increased: number of subjects | TEAE PT Euphoric mood: number of subjects | TEAE PT Fatigue: number of subjects | TEAE PT Feeling abnormal: number of subjects | TEAE PT Feeling drunk: number of subjects | TEAE PT Hyperacusis: number of subjects | TEAE PT Hyperphagia: number of subjects | TEAE PT Hypoaesthesia oral: number of subjects | TEAE PT Hypoaesthesia: number of subjects | TEAE PT Increased appetite: number of subjects | TEAE PT Influenza like illness: number of subjects | TEAE PT Infusion site hypoaesthesia: number of subjects | TEAE PT Left ventricular hypertrophy: number of subjects | TEAE PT Lethargy: number of subjects | TEAE PT Limb discomfort: number of subjects | TEAE PT Logorrhoea: number of subjects | TEAE PT Memory impairment: number of subjects | TEAE PT Muscular weakness: number of subjects | TEAE PT Nausea: number of subjects | TEAE PT Paraesthesia: number of subjects | TEAE PT Rhinorrhoea: number of subjects | TEAE PT Sedation: number of subjects | TEAE PT Sinusitis: number of subjects | TEAE PT Skin abrasion: number of subjects | TEAE PT Slow speech: number of subjects | TEAE PT Smoke sensitivity: number of subjects | TEAE PT Tachycardia: number of subjects | TEAE PT Throat tightness: number of subjects | TEAE PT Time perception altered: number of subjects | TEAE PT Venous injury: number of subjects | TEAE PT Vision blurred: number of subjects | TEAE PT Visual impairment: number of subjects | TEAE SOC Cardiac disorders: number of subjects | TEAE SOC Eye disorders: number of subjects | TEAE SOC Gastrointestinal disorders: number of subjects | TEAE SOC Immune system disorders: number of subjects | TEAE SOC Investigations: number of subjects | TEAE SOC Metabolism and nutrition disorders: number of subjects | TEAE SOC Musculoskeletal and connective tissue disorders: number of subjects
1: TEAE PT Dyspnoea exertional: number of subjects | TEAE PT Haematuria: number of subjects | TEAE PT Hyperhidrosis: number of subjects | TEAE PT Muscle strain: number of subjects | TEAE PT Sensory disturbance: number of subjects | TEAE PT Urinary tract infection: number of subjects | TEAE PT Vertigo: number of subjects | TEAE PT Vessel puncture site erythema: number of subjects | TEAE SOC Ear and labyrinth disorders: number of subjects | TEAE SOC General disorders and administration site conditions: number of subjects | TEAE SOC Infections and infestations: number of subjects | TEAE SOC Injury, poisoning and procedural complications: number of subjects | TEAE SOC Renal and urinary disorders: number of subjects | TEAE SOC Respiratory, thoracic and mediastinal disorders: number of subjects | TEAE SOC Skin and subcutaneous tissue disorders: number of subjects
4: TEAE PT Derealisation: number of subjects | TEAE PT Somnolence: number of subjects | TEAE SOC Psychiatric disorders: number of subjects
(3): TEAE PT Dyspnoea exertional: (%) of subjects | TEAE PT Haematuria: (%) of subjects | TEAE PT Hyperhidrosis: (%) of subjects | TEAE PT Muscle strain: (%) of subjects | TEAE PT Sensory disturbance: (%) of subjects | TEAE PT Urinary tract infection: (%) of subjects | TEAE PT Vertigo: (%) of subjects | TEAE PT Vessel puncture site erythema: (%) of subjects | TEAE SOC Ear and labyrinth disorders: (%) of subjects | TEAE SOC General disorders and administration site conditions: (%) of subjects | TEAE SOC Infections and infestations: (%) of subjects | TEAE SOC Injury, poisoning and procedural complications: (%) of subjects | TEAE SOC Renal and urinary disorders: (%) of subjects | TEAE SOC Respiratory, thoracic and mediastinal disorders: (%) of subjects | TEAE SOC Skin and subcutaneous tissue disorders: (%) of subjects
(27): TEAE SOC Nervous system disorders: (%) of subjects
